Data taken from PubChem BioAssay AID296 (DTP/NCI, 2004).
“And” between values parts separate entries of the source, which are not always exact repeats. Identical values can stand only once. Results filed as inconclusive are left out.

Tested on: MX-1 breast xenograft, nude mice, tumor weight T/C
Assay: NCI In Vivo Anticancer Drug Screen. Data for tumor model Human Mammary Carcinoma MX-1 Xenograft (intrarenal inoculation) in NU/NU Swiss (nude) mice
Conditions: endpoint: mean tumor weight change, higher = larger tumour
Outline: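 Activity is given as a ratio, with each measurement in the compound-treated arm divided by the matching measurement in vehicle-dosed controls. Tumour size or survival serves as the measured parameter.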

[1] = dose: 50.0 mg/kg/injection, schedule: Q01DX010 (sc), vehicle: Klucel (hydroxypropylcellulose) (HPC)
[2] = dose: 100.0 mg/kg/injection, schedule: Q01DX010 (sc), vehicle: Klucel (hydroxypropylcellulose) (HPC)
[3] = dose: 100.0 mg/kg/injection, schedule: Q04DX003 (sc), vehicle: Klucel (hydroxypropylcellulose) (HPC)
[4] = dose: 200.0 mg/kg/injection, schedule: Q01DX010 (sc), vehicle: Klucel (hydroxypropylcellulose) (HPC)
[5] = dose: 800.0 mg/kg/injection, schedule: Q04DX003 (sc), vehicle: Klucel (hydroxypropylcellulose) (HPC)
[6] = dose: 200.0 mg/kg/injection, schedule: Q04DX003 (sc), vehicle: Klucel (hydroxypropylcellulose) (HPC)
[7] = dose: 4.0 mg/kg/injection, schedule: Q04DX003 (sc), vehicle: saline
[8] = dose: 8.0 mg/kg/injection, schedule: Q04DX003 (sc), vehicle: saline
[9] = dose: 16.0 mg/kg/injection, schedule: Q04DX003 (sc), vehicle: saline
[10] = dose: 200.0 mg/kg/injection, schedule: Q04DX003 (sc), vehicle: saline with Tween-80
[11] = dose: 300.0 mg/kg/injection, schedule: Q04DX003 (sc), vehicle: saline

In the case of `CNC(=O)OCc1c(COC(=O)NC)c(C)n(-c2ccc(OC)cc2)c1C`, the T/C [1] is reported as 41 % of control, the T/C (dose: 50.0 mg/kg/injection, schedule: Q04DX003 (sc), vehicle: Klucel (hydroxypropylcellulose) (HPC)) is reported as 110 % of control and the T/C [2] is reported as 9 % of control. For the same molecule, the T/C [3] was 46 % of control, the T/C [4] was -52 % of control and the T/C (dose: 400.0 mg/kg/injection, schedule: Q01DX010 (sc), vehicle: Klucel (hydroxypropylcellulose) (HPC)) was -61 % of control. The T/C [5] was -100 % of control and the T/C (dose: 1600.0 mg/kg/injection, schedule: Q04DX003 (sc), vehicle: Klucel (hydroxypropylcellulose) (HPC)) was -100 % of control.
`CN(C=O)C(C(=O)Nc1cccc2c(OC(=O)C(N(C)C=O)(N(C)C=O)N(C)C=O)c(N=Nc3ccc(S(=O)(=O)Nc4nccs4)cc3)cc(N=Nc3ccc(S(=O)(=O)Nc4nccs4)cc3)c12)(N(C)C=O)N(C)C=O` (tested in a mixture with another compound) was tested, and the T/C (dose: 300.0 mg/kg/injection, schedule: Q04DX003 (sc), vehicle: saline with Tween-80) was 108 % of control and the T/C (dose: 2400.0 mg/kg/injection, schedule: Q04DX003 (sc), vehicle: saline with Tween-80) was 90 % of control.
With `O=c1[nH]c(=O)c2nc(-c3cccnc3)cnc2[nH]1` the T/C [6] was 36 % of control.
`CCC1CC2CN(CCc3c([nH]c4ccccc34)C(C(=O)OC)(c3cc4c(cc3OC)N(C)C3C(O)(C(=O)OC)C(OC(C)=O)C5(CC)C=CCN6CCC43C65)C2)C1` (configuration not stated) was tested, and the T/C [7] was 36 % of control, the T/C [8] was 4 % of control and the T/C (dose: 8.0 mg/kg/injection, schedule: Q04DX003 (sc), vehicle: water) was 25 % of control. The T/C [9] was -86 % of control.
For `CSC1SCC2C(=O)N(C)C(C(C)C)C(=O)OCC(NC(=O)c3cnc4ccccc4n3)C(=O)NC(C)C(=O)N(C)C1C(=O)N(C)C(C(C)C)C(=O)OCC(NC(=O)c1cnc3ccccc3n1)C(=O)NC(C)C(=O)N2C` (configuration not stated), the T/C (dose: 60.0 micrograms/kg/injection, schedule: Q01DX010 (sc), vehicle: saline) was 109 % of control, the T/C (dose: 120.0 micrograms/kg/injection, schedule: Q01DX010 (sc), vehicle: saline) was 87 % of control and the T/C (dose: 240.0 micrograms/kg/injection, schedule: Q01DX010 (sc), vehicle: saline) was 40 % of control.
`Cc1ccc(N)c(N)c1` was tested, and the T/C [10] was 87 % of control and the T/C (dose: 800.0 mg/kg/injection, schedule: Q04DX003 (sc), vehicle: saline with Tween-80) was 112 % of control.
In the case of `C/C=C/c1cc2n(c1)C(=O)c1cc(OC3OC(C)C(NC)C(C)(O)C3O)c(C)c(O)c1NC2O` (configuration not stated), the T/C (dose: 100.0 micrograms/kg/injection, schedule: Q04DX003 (sc), vehicle: saline) is reported as 182 % of control, the T/C (dose: 200.0 micrograms/kg/injection, schedule: Q04DX003 (sc), vehicle: saline) is reported as 22 % of control and the T/C (dose: 400.0 micrograms/kg/injection, schedule: Q04DX003 (sc), vehicle: saline) is reported as 91 % of control.
In the case of `CC(C)CC(NC(=O)CF)C(=O)O` (configuration not stated), the T/C (dose: 10.0 mg/kg/injection, schedule: Q04DX003 (sc), vehicle: saline) is reported as 92 % of control and the T/C (dose: 20.0 mg/kg/injection, schedule: Q04DX003 (sc), vehicle: saline) is reported as 89 % of control.
`Cc1ccc(S(=O)(=O)NC(=S)S)cc1` was tested, and the T/C (dose: 200.0 mg/kg/injection, schedule: Q01DX010 (sc), vehicle: saline with Tween-80) was 98 % of control and the T/C (dose: 400.0 mg/kg/injection, schedule: Q01DX010 (sc), vehicle: saline with Tween-80) was 93 % of control.
In the case of `O=C1C=C[C@H](O)[C@@]2(CO)O[C@@H]12`, the T/C (dose: 3.12 mg/kg/injection, schedule: Q04DX003 (sc), vehicle: saline with Tween-80) is reported as 106 % of control and the T/C (dose: 6.25 mg/kg/injection, schedule: Q04DX003 (sc), vehicle: saline with Tween-80) is reported as 85 % of control.
With `O=C([O][Bi]([c]1ccccc1)[c]1ccccc1)c1ccccc1` the T/C (dose: 25.0 mg/kg/injection, schedule: Q04DX003 (ip), vehicle: Klucel (hydroxypropylcellulose) (HPC)) was 91 % of control, the T/C (dose: 50.0 mg/kg/injection, schedule: Q04DX003 (ip), vehicle: Klucel (hydroxypropylcellulose) (HPC)) was 78 % of control and the T/C (dose: 100.0 mg/kg/injection, schedule: Q04DX003 (ip), vehicle: Klucel (hydroxypropylcellulose) (HPC)) was 64 % of control.
With `CCCCCC[C@@H](O)C/C=C\CCCCCCCC(=O)OCCO` the T/C [11] was 87 % of control, the T/C (dose: 600.0 mg/kg/injection, schedule: Q04DX003 (sc), vehicle: saline) was 104 % of control and the T/C (dose: 1200.0 mg/kg/injection, schedule: Q04DX003 (sc), vehicle: saline) was 96 % of control. For the same molecule, the T/C (dose: 2400.0 mg/kg/injection, schedule: Q04DX003 (sc), vehicle: saline) was 103 % of control.
`C=C1C(=O)OC2CC(C)C3C4OC4C(O)C3(C)C(O)C12` (configuration not stated) was tested, and the T/C (dose: 100.0 mg/kg/injection, schedule: Q04DX003 (sc), vehicle: saline with Tween-80) was 113 % of control, the T/C [10] was 116 % of control and the T/C (dose: 400.0 mg/kg/injection, schedule: Q04DX003 (sc), vehicle: saline with Tween-80) was 101 % of control.
`C[n+]1c2cc(N)ccc2cc2ccc(N)cc21` was tested, and the T/C (dose: 1.56 mg/kg/injection, schedule: Q01DX010 (sc), vehicle: saline) was 79 % of control, the T/C (dose: 3.13 mg/kg/injection, schedule: Q01DX010 (sc), vehicle: saline) was 66 % of control and the T/C (dose: 6.25 mg/kg/injection, schedule: Q01DX010 (sc), vehicle: saline) was 100 % of control.
For `Cn1c2nc(=O)n(-c3ccccc3)c(=O)c-2nc2c1CCCC2`, the T/C (dose: 37.5 mg/kg/injection, schedule: Q04DX003 (sc), vehicle: saline with Tween-80) was 104 % of control, the T/C (dose: 75.0 mg/kg/injection, schedule: Q04DX003 (sc), vehicle: saline with Tween-80) was 111 % of control and the T/C (dose: 150.0 mg/kg/injection, schedule: Q04DX003 (sc), vehicle: saline with Tween-80) was 87 % of control.
For `O=CC(O)C(O)C(O)C(O)C(=O)O.[NH-]C1CCCCC1[NH-].[Pt+2]` (configuration not stated), the T/C (dose: 9.38 mg/kg/injection, schedule: Q04DX003 (sc), vehicle: suspension in saline) was 48 % of control and the T/C (dose: 18.75 mg/kg/injection, schedule: Q04DX003 (sc), vehicle: suspension in saline) was 28 % of control.
`Cn1cnc([N+](=O)[O-])c1S(=O)(=O)NCN1CCOCC1` was tested, and the T/C (dose: 25.0 mg/kg/injection, schedule: Q01DX010 (sc), vehicle: Klucel (hydroxypropylcellulose) (HPC)) was 94 % of control, the T/C [1] was 76 % of control and the T/C [2] was 94 % of control. For the same molecule, the T/C [4] was 78 % of control.
`COC1=C2C[C@@H](C)C[C@@H](OC)[C@@H](O)[C@H](C)/C=C(\C)[C@@H](OC(N)=O)[C@H](OC)/C=C\C=C(/C)C(=O)NC(=CC1=O)C2=O` was tested, and the T/C [7] was 102 % of control, the T/C [8] was 89 % of control and the T/C [9] was 89 % of control. The T/C (dose: 32.0 mg/kg/injection, schedule: Q04DX003 (sc), vehicle: saline) was 88 % of control and 94 % of control, the T/C (dose: 64.0 mg/kg/injection, schedule: Q04DX003 (sc), vehicle: saline) was 85 % of control and the T/C (dose: 128.0 mg/kg/injection, schedule: Q04DX003 (sc), vehicle: saline) was 66 % of control.
With `Cc1cc2c(c3oc(C4(C)OC4C4OC4C)cc(=O)c13)C(=O)c1c(O)c(C3CC(C)(N(C)C)C(O)C(C)O3)cc(C3CC(N(C)C)C(O)C(C)O3)c1C2=O` (configuration not stated) the T/C (dose: 0.05 mg/kg/injection, schedule: Q04DX003 (sc), vehicle: saline) was 77 % of control and the T/C (dose: 0.1 mg/kg/injection, schedule: Q04DX003 (sc), vehicle: saline) was 30 % of control.
For `O=CC(=O)c1ccc(O)cc1`, the T/C (dose: 150.0 mg/kg/injection, schedule: Q04DX003 (sc), vehicle: saline) was 95 % of control and the T/C [11] was 69 % of control.
`O=c1[nH]cnc2n[nH]nc12` was tested, and the T/C [3] was 54 % of control, the T/C [6] was 27 % of control and the T/C (dose: 400.0 mg/kg/injection, schedule: Q04DX003 (sc), vehicle: Klucel (hydroxypropylcellulose) (HPC)) was 48 % of control. For the same molecule, the T/C [5] was 31 % of control.
With `C=C(C)[C@H]1CN[C@H](C(=O)O)[C@H]1CC(=O)O` the T/C (dose: 20.0 mg/kg/injection, schedule: Q04DX003 (sc), vehicle: suspension in saline) was 75 % of control and the T/C (dose: 40.0 mg/kg/injection, schedule: Q04DX003 (sc), vehicle: suspension in saline) was 36 % of control.
